According to patent US20040102622A1, “Modulation of hepatocyte growth factor receptor expression” (Isis Pharmaceuticals Inc., priority 2002, published 2004):
Strand notation (5' to 3'): a small letter for the sugar, then the base; units joined by * are phosphorothioate-linked, units joined directly phosphodiester-linked; [ ] holds rarer units or linkages, { } end groups; capitals alone tell only the bases. e = 2'-O-(2-methoxyethyl) (MOE); [5mC] = 5-methylcytosine; d = 2'-deoxy (DNA)

Tested on: human hepatocyte growth factor receptor mRNA
Test: Inhibition of human hepatocyte growth factor receptor mRNA levels in T-24 cells, quantitative real-time PCR; note: test concentration or dose not given here
Conditions: averages from three experiments

Substance | % INHIB (inhibition of human hepatocyte growth factor receptor mRNA levels) [%]
155097 (antisense e[5mC]*e[5mC]*eT*e[5mC]*eG*dG*dT*d[5mC]*dA*dG*dA*dA*dA*dT*dT*eG*eG*eG*eA*eA) [compound 155097] | 53
209536 (antisense e[5mC]*e[5mC]*eT*e[5mC]*e[5mC]*d[5mC]*dA*dT*dA*d[5mC]*dT*dA*dG*dA*dG*eA*eA*eG*eT*eA) [compound 209536] | 36
209539 (antisense eG*e[5mC]*eT*eT*e[5mC]*d[5mC]*d[5mC]*d[5mC]*dA*dT*dT*dG*d[5mC]*dT*dG*eT*eT*eA*eG*eG) [compound 209539] | 57
209554 (antisense eA*eG*eA*eG*eG*dG*dA*dA*dA*dT*d[5mC]*dG*dG*d[5mC]*d[5mC]*e[5mC]*e[5mC]*e[5mC]*eG*e[5mC]) [compound 209554] | 0
209528 (antisense eT*eT*eG*eG*eG*dA*dA*dA*dA*d[5mC]*d[5mC]*dT*dT*dG*dT*eA*eG*eA*eT*eT) [compound 209528] | 42
209552 (antisense eT*eG*eA*eA*eA*d[5mC]*dT*dT*dT*d[5mC]*dT*dA*dG*dG*dT*eG*eG*eA*eG*eA) [compound 209552] | 0
155098 (antisense eT*e[5mC]*eA*eG*eA*dA*dG*dT*dG*dT*d[5mC]*d[5mC]*dT*dA*dT*eT*eA*eA*eA*eG) [compound 155098] | 48
209542 (antisense e[5mC]*eT*eT*eG*e[5mC]*dT*dT*d[5mC]*d[5mC]*dA*d[5mC]*dT*dA*dA*dA*eA*eA*eT*eG*eA) [compound 209542] | 74
209532 (antisense eA*eG*eT*eA*e[5mC]*dT*dA*dA*dT*dA*dA*dA*dA*dG*dA*eT*eT*eT*eG*eG) [compound 209532] | 0
209545 (antisense eA*eA*eT*eA*e[5mC]*dA*dA*dG*dT*d[5mC]*d[5mC]*dT*dA*dT*dA*eA*eT*eA*eG*eT) [compound 209545] | 10
155099 (antisense e[5mC]*eA*eG*eG*eT*dT*dT*dT*dT*d[5mC]*d[5mC]*d[5mC]*dA*dA*d[5mC]*eA*e[5mC]*e[5mC]*eT*eG) [compound 155099] | 77
155111 (antisense eG*eT*eT*e[5mC]*eG*dG*d[5mC]*dA*dG*dA*dA*dT*d[5mC]*dT*dG*eG*e[5mC]*eT*eT*eG) [compound 155111] | 86
209547 (antisense eT*e[5mC]*e[5mC]*eT*eG*d[5mC]*dT*dT*d[5mC]*dA*dA*dT*dT*dT*d[5mC]*e[5mC]*e[5mC]*eA*eT*eA) [compound 209547] | 84
209544 (antisense eT*eA*eA*eT*eA*dG*dT*dG*d[5mC]*dA*dA*dT*dT*dT*dT*eG*eG*e[5mC]*eA*eA) [compound 209544] | 82
209525 (antisense e[5mC]*eT*eG*eG*eT*d[5mC]*d[5mC]*dG*dT*d[5mC]*dA*dA*dA*dA*dA*e[5mC]*eA*eT*eA*eA) [compound 209525] | 89
209546 (antisense eA*eA*eT*eT*e[5mC]*dA*dA*dG*dT*dT*dT*dT*dG*dG*dA*e[5mC]*eT*e[5mC]*e[5mC]*eA) [compound 209546] | 76
209535 (antisense eA*eT*eA*eA*e[5mC]*dA*dA*dT*dA*d[5mC]*dA*dA*dG*dT*d[5mC]*e[5mC]*eT*eA*eT*eG) [compound 209535] | 39
155130 (antisense eT*e[5mC]*eT*e[5mC]*eT*dG*dA*dA*d[5mC]*dT*d[5mC]*dA*dG*dG*dT*eA*eA*eA*eA*e[5mC]) [compound 155130] | 83
